We go through two compounds from PubChem BioAssay AID1259407 (Chemical Carcinogenesis Research Information System (CCRIS), 2018).

Calls of active or inactive are those of the source. The rule behind the calls is not given here.

This data set relates to CCRIS mutagenicity, Ames/micronucleus/aberration tests. The experiment in a line: CCRIS mutagenicity studies.
Setting [1] is: Test System: AMES SALMONELLA TYPHIMURIUM, Strain/Indicator: TA100, Metabolic Activation: NONE, Method: STANDARD PLATE.

For `Cc1cc(-c2ccc(N)c(C)c2)ccc1N`, the mutagenic call by setting is: (End Point: IN VITRO CHROMOSOMAL ABERRATIONS, Test System: CHINESE HAMSTER OVARY CELLS, Metabolic Activation: NONE) “active; positive”; (End Point: IN VITRO CHROMOSOMAL ABERRATIONS, Test System: CHINESE HAMSTER OVARY CELLS, Metabolic Activation: RAT, LIVER, S-9, AROCLOR 1254) “active; positive”; (End Point: IN VITRO CHROMOSOMAL ABERRATIONS, Test System: CHL CELLS, Metabolic Activation: NONE) “active; positive (structural changes)”; (End Point: IN VITRO CHROMOSOMAL ABERRATIONS, Test System: CHL CELLS, Metabolic Activation: RAT, LIVER, S-9, SODIUM PHENOBARBITAL AND 5,6-BENZOFLAVONE) “inactive; negative; authors report equivocal results for structural changes at the highest”; (Test System: AMES SALMONELLA TYPHIMURIUM, Strain/Indicator: SV50, Metabolic Activation: NONE, Method: PREINCUBATION (PRIVAL METHOD)) “inactive; negative”; (Test System: AMES SALMONELLA TYPHIMURIUM, Strain/Indicator: SV50, Metabolic Activation: RAT, LIVER, S-9, AROCLOR 1254, Method: STANDARD PLATE) “inactive; negative”. Also, the mutagenic call (Test System: AMES SALMONELLA TYPHIMURIUM, Strain/Indicator: TA97, Metabolic Activation: HAMSTER, LIVER, S-9, AROCLOR 1254 (10%), Method: PREINCUBATION) was “inactive; negative”; the mutagenic call (Test System: AMES SALMONELLA TYPHIMURIUM, Strain/Indicator: TA97, Metabolic Activation: HAMSTER, LIVER, S-9, AROCLOR 1254, Method: PREINCUBATION) was “inactive; negative”; the mutagenic call (Test System: AMES SALMONELLA TYPHIMURIUM, Strain/Indicator: TA97, Metabolic Activation: NONE, Method: PREINCUBATION) is “inactive; negative”; the mutagenic call (Test System: AMES SALMONELLA TYPHIMURIUM, Strain/Indicator: TA97, Metabolic Activation: RAT, LIVER, S-9, AROCLOR 1254 (10%), Method: PREINCUBATION) was “inactive; negative”; the mutagenic call (Test System: AMES SALMONELLA TYPHIMURIUM, Strain/Indicator: TA97, Metabolic Activation: RAT, LIVER, S-9, AROCLOR 1254, Method: PREINCUBATION) was “inactive; negative”; the mutagenic call (Test System: AMES SALMONELLA TYPHIMURIUM, Strain/Indicator: TA98(1,8-DNP6), Metabolic Activation: NONE, Method: STANDARD PLATE) was “inactive; negative”. Also, the mutagenic call (Test System: AMES SALMONELLA TYPHIMURIUM, Strain/Indicator: TA98(1,8-DNP6), Metabolic Activation: S-9, Method: STANDARD PLATE) is “active; positive”; the mutagenic call (Test System: AMES SALMONELLA TYPHIMURIUM, Strain/Indicator: TA98, Metabolic Activation: HAMSTER, LIVER, S-9, AROCLOR 1254 (10%), Method: PREINCUBATION) was “active; positive”; the mutagenic call (Test System: AMES SALMONELLA TYPHIMURIUM, Strain/Indicator: TA98, Metabolic Activation: HAMSTER, LIVER, S-9, AROCLOR 1254, Method: PREINCUBATION) is “active; positive”; the mutagenic call (Test System: AMES SALMONELLA TYPHIMURIUM, Strain/Indicator: TA98, Metabolic Activation: NONE, Method: PREINCUBATION) was “inactive; negative”; the mutagenic call (Test System: AMES SALMONELLA TYPHIMURIUM, Strain/Indicator: TA98, Metabolic Activation: NONE, Method: STANDARD PLATE) was “inactive; negative”; the mutagenic call (Test System: AMES SALMONELLA TYPHIMURIUM, Strain/Indicator: TA98, Metabolic Activation: RAT LIVER S-9, AROCLOR 1254, Method: PREINCUBATION) was “active; positive”. For the same compound, the mutagenic call was “active; positive” (Test System: AMES SALMONELLA TYPHIMURIUM, Strain/Indicator: TA98, Metabolic Activation: RAT LIVER S-9, PHENOBARBITAL AND BETA-NAPHTHOFLAVONE, Method: PREINCUBATION); “active; positive” (Test System: AMES SALMONELLA TYPHIMURIUM, Strain/Indicator: TA98, Metabolic Activation: RAT, LIVER, S-9, AROCLOR 1254 (10%), Method: PREINCUBATION); “active; positive” (Test System: AMES SALMONELLA TYPHIMURIUM, Strain/Indicator: TA98, Metabolic Activation: RAT, LIVER, S-9, AROCLOR 1254, Method: PREINCUBATION); “active; positive” (Test System: AMES SALMONELLA TYPHIMURIUM, Strain/Indicator: TA98, Metabolic Activation: RAT, LIVER, S-9, AROCLOR 1254, Method: STANDARD PLATE); “active; positive” (Test System: AMES SALMONELLA TYPHIMURIUM, Strain/Indicator: TA98, Metabolic Activation: S-9, Method: STANDARD PLATE); “inactive; negative” (Test System: AMES SALMONELLA TYPHIMURIUM, Strain/Indicator: TA100, Metabolic Activation: HAMSTER, LIVER, S-9, AROCLOR 1254 (10%), Method: PREINCUBATION). The mutagenic call by setting is: (Test System: AMES SALMONELLA TYPHIMURIUM, Strain/Indicator: TA100, Metabolic Activation: HAMSTER, LIVER, S-9, AROCLOR 1254, Method: PREINCUBATION) “inactive; negative”; (Test System: AMES SALMONELLA TYPHIMURIUM, Strain/Indicator: TA100, Metabolic Activation: NONE, Method: PREINCUBATION) “inactive; negative”; under setting [1], “inactive; negative”; (Test System: AMES SALMONELLA TYPHIMURIUM, Strain/Indicator: TA100, Metabolic Activation: RAT LIVER S-9, AROCLOR 1254, Method: PREINCUBATION) “inactive; negative”; (Test System: AMES SALMONELLA TYPHIMURIUM, Strain/Indicator: TA100, Metabolic Activation: RAT LIVER S-9, PHENOBARBITAL AND BETA-NAPHTHOFLAVONE, Method: PREINCUBATION) “inactive; negative”; (Test System: AMES SALMONELLA TYPHIMURIUM, Strain/Indicator: TA100, Metabolic Activation: RAT, LIVER, S-9, AROCLOR 1254 (10%), Method: PREINCUBATION) “inactive; negative”. The mutagenic call (Test System: AMES SALMONELLA TYPHIMURIUM, Strain/Indicator: TA100, Metabolic Activation: RAT, LIVER, S-9, AROCLOR 1254, Method: PREINCUBATION) was “inactive; negative”; the mutagenic call (Test System: AMES SALMONELLA TYPHIMURIUM, Strain/Indicator: TA100, Metabolic Activation: S-9, Method: STANDARD PLATE) is “active; positive”; the mutagenic call (Test System: AMES SALMONELLA TYPHIMURIUM, Strain/Indicator: TA1535, Metabolic Activation: HAMSTER, LIVER, S-9, AROCLOR 1254 (10%), Method: PREINCUBATION) was “inactive; negative”; the mutagenic call (Test System: AMES SALMONELLA TYPHIMURIUM, Strain/Indicator: TA1535, Metabolic Activation: HAMSTER, LIVER, S-9, AROCLOR 1254, Method: PREINCUBATION) was “inactive; negative”; the mutagenic call (Test System: AMES SALMONELLA TYPHIMURIUM, Strain/Indicator: TA1535, Metabolic Activation: NONE, Method: PREINCUBATION) was “inactive; negative”; the mutagenic call (Test System: AMES SALMONELLA TYPHIMURIUM, Strain/Indicator: TA1535, Metabolic Activation: RAT, LIVER, S-9, AROCLOR 1254 (10%), Method: PREINCUBATION) is “inactive; negative”. Besides, the mutagenic call by setting is: (Test System: AMES SALMONELLA TYPHIMURIUM, Strain/Indicator: TA1535, Metabolic Activation: RAT, LIVER, S-9, AROCLOR 1254, Method: PREINCUBATION) “inactive; negative”; (Test System: AMES SALMONELLA TYPHIMURIUM, Strain/Indicator: TA1537, Metabolic Activation: RAT LIVER S-9, PHENOBARBITAL AND BETA-NAPHTHOFLAVONE, Method: PREINCUBATION) “inactive; negative”; (Test System: AMES SALMONELLA TYPHIMURIUM, Strain/Indicator: TA1538, Metabolic Activation: HAMSTER, LIVER, S-9, Method: STANDARD PLATE) “active; positive”; (Test System: AMES SALMONELLA TYPHIMURIUM, Strain/Indicator: TA1538, Metabolic Activation: RAT, LIVER, S-9, AROCLOR 1254, Method: STANDARD PLATE) “active; positive”; (Test System: Ames Salmonella typhimurium, Strain/Indicator: TA98, Metabolic Activation: Rat, Liver, S-9, Sodium phenobarbitone, Method: Preincubation) “active; positive, test conducted under both aerobic and anaerobic conditions”; (Test System: Ames Salmonella typhimurium, Strain/Indicator: TA102, Metabolic Activation: None, Method: Preincubation) “inactive; negative”. Moreover, the mutagenic call by setting is: (Test System: Ames Salmonella typhimurium, Strain/Indicator: TA102, Metabolic Activation: Rat, Liver, S-9, Aroclor 1254, Method: Preincubation) “inactive; negative”; (Test System: Ames Salmonella typhimurium, Strain/Indicator: TA1538, Metabolic Activation: Rat, Liver, S-9, Sodium phenobarbitone, Method: Preincubation) “active; positive, test conducted under both aerobic and anaerobic conditions”; (Test System: MOUSE LYMPHOMA, Strain/Indicator: L5178Y (TK+/TK-), Metabolic Activation: NONE, Method: SUSPENSION/PLATE) “active; positive”; (Test System: MOUSE LYMPHOMA, Strain/Indicator: L5178Y (TK+/TK-), Metabolic Activation: RAT, LIVER, S-9, AROCLOR 1254, Method: SUSPENSION/PLATE) “active; positive”.

For the compound `O[C@H]1C=Cc2cccnc2[C@@H]1O`, the mutagenic call under setting [1] was “inactive; negative” and the mutagenic call (Test System: AMES SALMONELLA TYPHIMURIUM, Strain/Indicator: TA100, Metabolic Activation: RAT, LIVER, S-9, AROCLOR 1254 (10 OR 20%), Method: STANDARD PLATE) was “inactive; negative”.
